Experimental data reported in patent US20140371262A1, “PREVENTIVE AND/OR THERAPEUTIC AGENT FOR THROMBOEMBOLISM IN THROMBOEMBOLISM PATIENT WITH SEVERE RENAL IMPAIRMENT” (Daiichi Sankyo Company, Limited, priority 2011, published 2014).

Legend:
NVAF patients = assay: Late phase-II trial targeting NVAF patient in Japan (thromboembolic and bleeding events, 12 weeks); format: in vivo, human; details: for Bleeding events, subjects with event/subjects / Incidence of bleeding events (major, clinically relevant non-major and minor bleeding in total): all subjects
[1] = Clinical pharmacological trial: pharmacokinetics after single-dose edoxaban 15 mg in individuals with renal functional impairment; details: for AUC(0-t) / concentration at 24 h / CL renal / Cmax / half-life / Tmax: human, in vivo, 15 mg; for AUC(0-t): AUC0-24h Geometric least squares mean; for AUC(0-t) / concentration at 24 h / CL renal / Cmax / half-life / Tmax / AUC0-24h Geometric least squares mean ratio to healthy adult / Cmax Geometric least squares mean ratio to healthy adult: single-dose 15 mg; for concentration at 24 h: C24h Geometric mean (plasma edoxaban concentration 24 hours after administration); for CL renal: CLR Geometric mean (renal clearance); for Cmax: Cmax Geometric least squares mean; for half-life: t1/2 Geometric least squares mean; for Tmax: tmax Least squares mean
Method: Edoxaban was subjected to a clinical trial targeting individuals with renal functional impairment, in which edoxaban was studied for its pharmacokinetics in the individuals with renal functional impairment (Non-patent literature 4). In this clinical trial, 15 mg of edoxaban was administered at a single dose to each patient in five groups differing in the severity of renal functional impairment.

[2] = 45 mg×1/day, 12 weeks, 50 ≦ CLCR ≦ 80 mL/min
[3] = 45 mg×1/day, 12 weeks, 80 < CLCR mL/min
[4] = 60 mg×1/day, 12 weeks, 30 ≦ CLCR < 50 mL/min
[5] = 60 mg×1/day, 12 weeks, 50 ≦ CLCR ≦ 80 mL/min
[6] = 60 mg×1/day, 12 weeks, 80 < CLCR mL/min
[7] = 60 mg×1/day, 12 weeks, CLCR < 30 mL/min
[8] = each edoxaban group (30, 45, 60 mg) vs warfarin group
[9] = healthy adult (CLCR > 80 mL/min)
[10] = mild renal impairment (50 ≦ CLCR ≦ 80 mL/min)
[11] = moderate renal impairment (30 ≦ CLCR < 50 mL/min)
[12] = severe renal impairment (CLCR < 30 mL/min, nondialyzed)
[13] = individuals with severe renal impairment

## CN1CCc2nc(C(=O)N[C@@H]3C[C@@H](C(=O)N(C)C)CC[C@@H]3NC(=O)C(=O)Nc3ccc(Cl)cn3)sc2C1 [edoxaban, N^1-(5-chloropyridin-2-yl)-N^2-((1S,2R,4S)-4-[(dimethylamino)carbonyl]-2-{[(5-methyl-4,5,6,7-tetrahydrothiazolo[5,4-c]pyridin-2-yl)carbonyl]amino}cyclohexyl)ethanediamide]
NVAF patients; 45 mg×1/day, 12 weeks, 30 ≦ CLCR < 50 mL/min
  Major bleeding or clinically relevant non-major bleeding, subjects with event/subjects: (2/21)
NVAF patients; [2]
  Bleeding event (major, clinically relevant non-major and minor in total), subjects with event/subjects: (19/72)
  Incidence of bleeding event (major, clinically relevant non-major and minor bleeding in total): 26.4%
  Incidence of major bleeding or clinically relevant non-major bleeding: 4.2%
  Major bleeding or clinically relevant non-major bleeding, subjects with event/subjects: (3/72)
NVAF patients; [3]
  Bleeding event (major, clinically relevant non-major and minor in total), subjects with event/subjects: (5/41)
  Incidence of bleeding event (major, clinically relevant non-major and minor bleeding in total): 12.2%
  Incidence of major bleeding or clinically relevant non-major bleeding: 4.9%
  Major bleeding or clinically relevant non-major bleeding, subjects with event/subjects: (2/41)
NVAF patients; [4]
  Bleeding event (major, clinically relevant non-major and minor in total), subjects with event/subjects: (4/15)
  Incidence of bleeding event (major, clinically relevant non-major and minor bleeding in total): 26.7%
  Incidence of major bleeding or clinically relevant non-major bleeding: 0%
  Major bleeding or clinically relevant non-major bleeding, subjects with event/subjects: (0/15)
NVAF patients; [5]
  Bleeding event (major, clinically relevant non-major and minor in total), subjects with event/subjects: (21/68)
  Incidence of bleeding event (major, clinically relevant non-major and minor bleeding in total): 30.9%
  Incidence of major bleeding or clinically relevant non-major bleeding: 10.3%
  Major bleeding or clinically relevant non-major bleeding, subjects with event/subjects: (7/68)
NVAF patients; [6]
  Bleeding event (major, clinically relevant non-major and minor in total), subjects with event/subjects: (10/46)
  Incidence of bleeding event (major, clinically relevant non-major and minor bleeding in total): 21.7%
  Incidence of major bleeding or clinically relevant non-major bleeding: 0%
  Major bleeding or clinically relevant non-major bleeding, subjects with event/subjects: (0/46)
NVAF patients; [7]
  Bleeding event (major, clinically relevant non-major and minor in total), subjects with event/subjects: (1/1)
  Incidence of bleeding event (major, clinically relevant non-major and minor bleeding in total): 100.0%
  Incidence of major bleeding or clinically relevant non-major bleeding: 0%
  Major bleeding or clinically relevant non-major bleeding, subjects with event/subjects: (0/1)
NVAF patients; [8]
  Incidence of bleeding events compared with the warfarin group: No statistically significant difference
  Incidence of major bleeding, or of major bleeding or clinically relevant non-major bleeding, compared with the warfarin group: not statistically significantly different
NVAF patients; edoxaban 30 mg group, 12 weeks
  Bleeding events, subjects with event/subjects: 24/130
  Incidence of bleeding events (major, clinically relevant non-major and minor bleeding in total): 18.5%
NVAF patients; edoxaban 45 mg group, 12 weeks
  Major bleeding, incidence: 2.2%
  Major bleeding, number of subjects: 3 subjects
  Bleeding events, subjects with event/subjects: 30/134
  Incidence of bleeding events (major, clinically relevant non-major and minor bleeding in total): 22.4%
NVAF patients; edoxaban 45 mg group, 12 weeks, the only thromboembolic event of the trial
  Thromboembolic events: one cerebral infarction
NVAF patients; edoxaban 60 mg group, 12 weeks
  Major bleeding, incidence: 1.5%
  Major bleeding, number of subjects: 2 subjects
  Bleeding events, subjects with event/subjects: 36/130
  Incidence of bleeding events (major, clinically relevant non-major and minor bleeding in total): 27.7%
[1]; [9]
  AUC(0-t): 440 ng·h/mL
  concentration at 24 h: 2.34 ng/mL
  CL renal: 197 mL/min
  Cmax: 88.8 ng/mL
  half-life: 8.6 h
  Tmax: 1.5 h
[1]; [10]
  AUC(0-t): 569 ng·h/mL
  concentration at 24 h: 3.44 ng/mL
  CL renal: 121 mL/min
  Cmax: 104 ng/mL
  half-life: 8.15 h
  Tmax: 1.88 h
  AUC0-24h Geometric least squares mean ratio to healthy adult: 1.29
  Cmax Geometric least squares mean ratio to healthy adult: 1.17
[1]; [11]
  AUC(0-t): 726 ng·h/mL
  concentration at 24 h: 5.9 ng/mL
  CL renal: 67.4 mL/min
  Cmax: 113 ng/mL
  half-life: 9.44 h
  Tmax: 1.38 h
  AUC0-24h Geometric least squares mean ratio to healthy adult: 1.65
  Cmax Geometric least squares mean ratio to healthy adult: 1.27
[1]; peritoneal dialysis patient
  AUC(0-t): 770 ng·h/mL
  concentration at 24 h: 8.24 ng/mL
  Cmax: 83.8 ng/mL
  half-life: 12.2 h
  Tmax: 2.37 h
  AUC0-24h Geometric least squares mean ratio to healthy adult: 1.75
  Cmax Geometric least squares mean ratio to healthy adult: 0.944
[1]; [12]
  AUC(0-t): 661 ng·h/mL
  concentration at 24 h: 6.88 ng/mL
  CL renal: 32.5 mL/min
  Cmax: 83.6 ng/mL
  half-life: 16.9 h
  Tmax: 1.7 h
  AUC0-24h Geometric least squares mean ratio to healthy adult: 1.50
  Cmax Geometric least squares mean ratio to healthy adult: 0.941
[1]; individuals with moderate renal impairment
  Increase of C24 h compared with healthy adults: 2.52 times
[1]; [13]
  Degree of the rise in C24 h relative to healthy adults: approximately 3 times
  Degree of the rise in C24 h relative to individuals with mild renal impairment: approximately 2 times
